From patent US7897620B2, “Methods of using anti-inflammatory compounds” (Cambridge Enterprise Limited, priority 2007, dated 2011)
Read-outs that look alike come from different tables or passages of the source.

Key:
[1] = test system: S. Typhinurium (TA 102, TA98 and TA 100); test: AMES test, revertant colony formation; assay type: cell-based
Protocol: The five compounds were subjected to a standard AMES test to assess likely genotoxicity. Three His-auxotroph strains of S. Typhinurium (TA 102, TA98 and TA 100) were treated with each of the compounds at 5 concentrations (up to 5 mg/ml) in the presence and absence of S9 rat liver microsomal metabolising system. The number of revertant colonies was then determined by plating on trace-His minimal media.

[2] = Identification of the primary metabolites in pooled 24 h urine (LC-MS-MS full scan); assay type: in vivo; conditions: rat, single oral dose 3 mg/kg in 1% CMC, qualitative
Protocol: Urine was collected from rats exposed to a single oral dose (3 mg/kg in 1% CMC) of each compound over a 24 hour period in metabolic cages. The pooled urine sample was then subjected to full scan mass spectral analysis, using the same LC-MS conditions as described in example 1 above. Further MS-MS analysis of the product ions was then performed, and likely fragmentations/re-arrangements assigned from the publicly available Metabolite ID database.
For the major metabolites, the assigned structures were confirmed by synthesis of authentic samples, using methods well known in the art, which were subject to LC-MS-MS analysis under the same conditions as the urine samples.
Note that metabolite ID studies provide only qualitative estimates of the relative amounts of the different metabolites present, and separately validated assays with appropriate internal standards would be required to quantitate each metabolite species.
The detected metabolites, in rank order of concentration detected are shown in FIG. 2 for the five compounds analysed. It is important to note that the methodology used here is not necessarily exhaustive, and further (particularly minor) metabolites may also be present which were below the detection limits for the methods applied here. As a general rule, it can be assumed that metabolites representing 10% or more of the injected dose will be detected (though not necessarily structurally identified) by the methods used here).

[3] = Pharmacokinetics following a single dose in rat (LC-MS/MS of blood, one-compartment model); assay type: in vivo; conditions: rat, averaged across three rats
Protocol: Compounds were administered as a single dose (either 1 mg/kg bodyweight in 5% DMSO via the intravenous route or 3 mg/kg in 1% carboxymethylcellulose via the oral route) to three adult rats (using different rats for each compound and each route of administration).
Blood was then sampled at various time points (including just prior to dose administration) out to 24 hrs post dose, and the level of the various compounds was assessed using a validated LC-MS/MS assay. Briefly, 3-5 μl of the deproteinised sample was applied to a Waters Atlantis (C18 20×2.1 mm, 3 μm bead size) reverse phase chromatography column equilibrated in 0.1% formic acid in 95:5 water:actetonitrile. Over 3.5 minutes bound material was gradient eluted reaching 0.1% formic acid in 5:95 water:acetonitrile, followed by a step gradient back to 0.1% formic acid in 95:5 water:acetonitrile. The column eluent was then directed to an Applied Biosystems API 4000/3200 QTrap MS/MS mass spectrometer, with a Turbolonspray™ ion source operating in positive ion mode. The interface temperature was set at 650° C., with a 40 ms dwell time for each MRM transition, monitoring the following ions:
The internal standard in each determination was the related compound (S)-3-(2′,2′-dimethylpropanoylamino)-caprolactam, which was spiked into the sample prior to deproteinization. The lower limit of quantitation (LLOQ) for this assay was 2.4 ng/ml for each compound except (I′), where it was 38.1 ng/ml.
Following LC-MS/MS analysis of each collected sample, the pharmacokinetic disposition of the compound was modelled using Kinetica software, a well known software package for such applications.

[4] = test system: MCP-1 induced THP-1 cell migration; test: ChemoTx transwell migration assay, MCP-1 induced migration of THP-1 cells; assay type: cell-based; conditions: Homo sapiens
Protocol: In principle, this assay consists of two chambers separated by a porous membrane. The chemoattractant is placed in the lower compartment and the cells are placed in the upper compartment. After incubation for a period at 37° C. the cells move towards the chemoattractant, and the number of cells in the lower compartment is proportional to the chemoattractant activity (relative to a series of controls).
The THP-1 cell line (European Cell Culture Collection) were used as the leukocyte cell population.
First, the cell suspension to be placed in the upper compartment is prepared. The THP-1 cells are pelleted by centrifugation (770×g; 4 mins) and washed with Geys Balanced Salt Solution with 1 mg/ml BSA (GBSS+BSA). This wash is then repeated, and the cells repelleted before being resuspended in a small volume of GBSS+BSA for counting, for example using a standard haemocytometer.
The volume of GBSS+BSA is then adjusted depending on the number of cells present so that the cells are at final density of 4.45×10^6 cells per ml of GBSS+BSA. This ensures that there are […] THP-1 cells in each 25 μl of the solution that will be placed in the upper chamber of the plate.
To test a single compound for its ability to inhibit chemokine induced migration, it is necessary to prepare two lots of cells. The suspension of THP-1 cells at 4.45×10^6 cells/ml is divided into two pots. To one pot the inhibitor under test is added at an appropriate final concentration, in an appropriate vehicle (for example at 1 μM in not more than 1% DMSO). To the second pot an equal volume of GBSS+BSA plus vehicle as appropriate (e.g. not more than 1% DMSO) is added to act as a control.
Next, the chemoattractant solution to be placed in the lower compartment is prepared. For example, MCP-1 is diluted in GBSS+BSA to give a final concentration of 25 ng/ml. This is divided into two pots, as for the cell suspension. To one pot, the test compound is added to the same final concentration as was added to the cell suspension, while to the other pot an equal volume of GBSS+BSA plus vehicle as appropriate (e,g. not more than 1% DMSO) is added. Alternatively, other chemokines may be used (SDF-1α at 7.5 ng/ml; RANTES at 50 ng/ml; IL-8 at 10 ng/ml using neutrophils as the target cell population). In each case it is important to determine (in a separate experiment) the concentration of each chemokine which causes maximal stimulation of migration of the chosen target leukocyte population. This maximal concentration must then be used in experiments to test the inhibitory activity of the compounds of the invention.
Once the chemoattractant solutions for the lower wells and cell solutions for the upper chambers have been prepared, the migration chamber should be assembled. Place 29 μl of the appropriate chemoattractant solution into the lower well of the chamber. Assays should be performed with at least triplicate determinations of each condition. Once all the lower chambers have been filled, apply the porous membrane to the chamber in accordance with the manufacturer's instructions. Finally, apply 25 μl of the appropriate cell solution to each upper chamber. A plastic lid is placed over the entire apparatus to prevent evaporation.
The assembled chamber is incubated at 37° C., 5% CO2, for 2 hours. A suspension of cells in GBSS+BSA is also incubated under identical conditions in a tube: these cells will be used to construct a standard curve for determining the number of cells that have migrated to the lower chamber under each condition.
At the end of the incubation, the liquid cell suspension is gently removed from the upper chamber, and 20 μl of ice-cold 20 mM EDTA in PBS is added to the upper chamber, and the apparatus is incubated at 4° C. for 15 mins. This procedure causes any cells adhering to the underside of the membrane to fall into the lower chamber.
After this incubation the filter is carefully flushed with GBSS+BSA to wash off the EDTA, and then the filter is removed. […]

[5] = test system: lung leukocyte recruitment and T-helper cell polarisation; test: Ovalbumin-induced lung inflammation model of asthma (BAL leukocyte count, splenocyte Th1/Th2 ratio); assay type: in vivo, Brown Norway rat; conditions: rat, 30 mg/kg daily oral
Protocol: Adult Brown Norway rats (200-300 g body weight; n=10 per group) were sensitised by a single intraperitoneal injection of 0.1 mg Ovalbumin on day 0. Each rat then received an intratracheal challenge with a solution of 1% ovalbumin (w/v) on day 8, and with 2% ovalbumin (w/v) on days 15, 18 and 21. The animals were then sacrificed 3 hours after the final challenge on day 21. Note that ovalbumin (Sigma; purest available grade) was made endotoxin-free by passage over EndoTrap™ Red columns (purchased from Cambrex; used in accordance with the manufacturer's instructions), and the endotoxin level was confirmed as <5 EU/mg protein using the LAL assay (QCL-1000™; Cambrex; performed in accordance with the manufacturer's instructions; 1 mg of standard endotoxin contains ˜900,000 EU/mg). […]
On sacrifice, total lung leukocyate recruitment was assessed by performing a broncheoalveolar lavage (BAL) using 4 lots of 3 ml sterile phosphate-buffered saline introduced through a tracheal cannula. For each animal, the BAL washes were combined, and the total cell population counted (using a haemocytometer). […]
The spleen was also removed from each […] and placed in RPMI+10% FCS+antibiotics. […] The resulting cell suspension was then centrifuged (328 g; 5 mins) and washed in RPMI+10% FCS+antibiotics, before being resuspended in fresh media and counted using a haemocytometer. […]

[6] = test system: LPS-induced TNF-α production; test: Sub-lethal LPS-induced endotoxemia, serum TNF-α by ELISA; assay type: in vivo, mouse; conditions: for inhibition of LPS-induced TNF-α production: mouse, reference agents, previously shown by applicant, dose not stated
Protocol: In this assay, mice are given a non-specific pro-inflammatory challenge using bacterial endotoxin (LPS), and the extent of the systemic inflammatory response (measured by serum levels of the central pro-inflammatory cytokine TNF-α, which is essentially absent from the blood under normal conditions, but is rapidly elevated in response to a wide range of inflammatory stimuli).
Mice (in groups of 6) were pretreated with various doses of each compound, either by the subcutaneous route 30 mins prior to LPS challenge, or by the oral route (via gavage) 60 mins prior to LPS. The mice were then challenged with an intraperitoneal injection of 750 μg of bacterial LPS and sacrificed 3 hours later. Serum was prepared from a terminal bleed by cardiac puncture, and the concentration of TNF-α is determined by ELISA (R&D Systems). In each experiment, a group of 6 mice receive no LPS to act as a negative control, and a second group receive only LPS (with no candidate inhibitor). The level of TNF-α in serum from these animals, which received LPS without drug pre-treatment, is arbitrarily set to 100% (and is typically of the order of 6,000 pg/ml, compared with levels of <10 pg/ml among the negative control group). […]

CC1(C(=O)N[C@H]2CCCCNC2=O)CCCCC1 [(III), 3-(1′-methylcyclohexylcarbonylamino)-caprolactam]
Revertant colony formation TA98 + S9 ([1]; TA98 with S9, top dose 5 mg/ml): 0.55
Revertant colony formation TA98 ([1]; TA98 without S9, top dose 5 mg/ml): 0.68
Revertant colony formation TA100 + S9 ([1]; TA100 with S9 rat liver microsomal system, top dose 5 mg/ml): 0.81
Revertant colony formation TA100 ([1]; TA100 without S9, top dose 5 mg/ml): 0.79
Revertant colony formation TA102 + S9 ([1]; TA102 with S9, top dose 5 mg/ml): 0.88
Revertant colony formation TA102 ([1]; TA102 without S9, top dose 5 mg/ml): 0.69
major metabolite / route of metabolism detected in urine [2]: cytochrome P450-mediated hydroxylation
AUC(0-inf) ([3]; blood, single oral dose 3 mg/kg in 1% CMC, read-out: Exposure (AUC 0->infinity) (converted)): 48.3 ng·h/mL
F (%) oral bioavailability ([3]; 1 mg/kg iv in 5% DMSO and 3 mg/kg oral in 1% CMC, one-compartment model): 5%
Vss (L/kg) volume of distribution ([3]; one-compartment model): 0.6 L/kg
clearance ([3]; one-compartment model): 55 mL/min/kg
t½ (mins) dominant plasma half-life ([3]; one-compartment model): 11 min
EC50 ([4]; THP-1 cells, maximal dose of chemoattractant, read-out: ED50 MCP-1): 0.08 nM
EC50 ([4]; THP-1 migration inhibition, Table 5, read-out: Functional ED50 versus MCP-1): 0.08 nM

CC(C)(O)c1ccccc1CC[C@@H](SCC1(CC(=O)O)CC1)c1cccc(/C=C/c2ccc3ccc(Cl)cc3n2)c1 [monteleukast]
number of leukocytes in the BAL washes [5]: significantly reduced the number of leukocytes in the BAL washes

C=CCCCCCCCCC(=O)N[C@H]1CCC(=O)NC1=O [NR58,4]
fold less potent in vivo than 2′,2′-dimethylpropanoylamino)-tetrahydropyridin-2-one ([6]; models of acute inflammation such as LPS-induced endotoxemia): at least 250 fold

O=C1CCC(N2C(=O)c3ccccc3C2=O)C(=O)N1 (stereo not drawn) [thalidomide]
inhibition of LPS-induced TNF-α production [6]: about 60%

C[C@@H]1C[C@H]2[C@@H]3CCC4=CC(=O)C=C[C@]4(C)[C@@]3(F)[C@@H](O)C[C@]2(C)[C@@]1(O)C(=O)CO [dexamethasone]
inhibition of LPS-induced TNF-α production [6]: at least 90%
